# Data published in patent US20260297060A1, “COMPOUNDS FOR THE DEGRADATION OF MUTANT BRAF” (C4 THERAPEUTICS, INC., priority 2023, published 2026).
# Assays:
# A375-NRAS^Q61K cells = test: CTGlo Cell Viability Assay, A375-NRAS^Q61K (A375.11) cells, 96 hours; type: cell-based, human; conditions: Homo sapiens, 96 h, A375.11 (A375-NRAS^Q61K) cells; for Emax: lowest % viability achieved
# Summary of the method: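 Viability as CellTiter-Glo ATP luminescence after 96 h compound exposure at 37 °C; A375.11 (BRAF V600E/NRAS Q61K) cells at 250/well, top final concentration 10 μM in half-log steps. Signal was background-corrected and set relative to DMSO controls. A 4-parameter logistic fit gave GI50 (50% crossing) and Emax.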
# [1] = test system: A375 human melanoma xenografts; test: Example 6 efficacy study in A375 human melanoma xenografts (tumor volume, T/C, TGI); type: in vivo, BALB/c nude mice; conditions: p.o., QD × 21 days; for T/C / TGI / Tumor Size on PG-D21: PG-D21; for Tumor Size on PG-D21 / Tumor volume: Mean ± SEM
# Procedure: For efficacy study, compounds were tested in the A375 human melanoma xenografts. Known BRAF inhibitors encorafenib, and dabrafenib were used as positive controls. Encorafenib and dabrafenib were administered to BALB/c nude mice bearing A375 tumors on PG-D1 and dosed PO daily (QD) for 3 weeks. Encorafenib was dosed at 35 mg/kg. Dabrafenib was dosed at 100 mg/kg. Compound 83, Compound 93, Compound 70, and Compound 54 were administered to BALB/c nude mice bearing A375 tumors on PG-DO and dosed PO twice per day (BID) for 3 weeks. Compound 83, Compound 93, Compound 70, and Compound 54 were dosed at 10 mg/kg.
# The A375 tumor cells were maintained in vitro in DMEM medium supplemented with […] and 1% Penicillin-Streptomycin at 37° C. in an atmosphere of 5% CO2 in air. The tumor cells were routinely subcultured twice weekly. The cells growing in an exponential growth phase were harvested and counted for tumor inoculation.
# Each mouse was inoculated subcutaneously at the right flank with A375 tumor cells (5×10^6) in 0.2 mL of PBS with Matrigel (PBS: Matrigel=1:1) supplemented for tumor development. Animals were grouped for the treatment on day 16 after tumor inoculation when the average tumor volume reached 221 mm^3 for efficacy study and 386 mm^3 for PKPD study. The test articles administration and the animal numbers in each group are shown in the above experimental Tables.
# Prior to the onset of drug treatment, mice were measured for tumor size in two dimensions using a caliper, and the tumor volume (mm^3) was calculated using formula V=0.5 a×b^2 where a and b are the long and short diameters of the tumor in mm, respectively. Mice were randomized into different treatment groups based on the tumor volume.
# The major endpoint was to see if the tumor growth could be delayed or mice could be cured. The tumor size was then used for calculations of T/C value. The T/C value (in percent) is an indication of antitumor effectiveness; T and C are the mean volumes of the treated and control groups, respectively on specified day.
# TGI was calculated for each group using the formula: TGI (%)=[1−(Ti−T0)/(Ci−C0)]×100; Ti is the average tumor volume of a treatment group on a given day, T0 is the average tumor volume of the treatment group on the day of treatment start, Ci is the average tumor volume of the vehicle control group on the same day with Ti, and C0 is the average tumor volume of the vehicle group on the day of treatment start.
compound,measurement,setting,value
"CO[C@@H]1CCN(S(=O)(=O)Nc2ccc(F)c(Oc3ccc4ncn(C5CC6(CCN(C7CC8(C7)CN(c7cc9c(cc7F)c(N7CCC(=O)NC7=O)nn9C)C8)CC6)C5)c(=O)c4c3)c2C#N)C1 (stereo partly drawn) [Compound 269, (3R)-N-[2-cyano-3-[3-[7-[2-[3-(2,4-dioxohexahydropyrimidin-1-yl)-5-fluoro-1-methyl-indazol-6-yl]-2-azaspiro[3.3]heptan-6-yl]-7-azaspiro[3.5]nonan-2-yl]-4-oxo-quinazolin-6-yl]oxy-4-fluoro-phenyl]-3-methoxy-pyrrolidine-1-sulfonamide]",GI50,A375-NRAS^Q61K cells,< 1 µM
same,Emax,A375-NRAS^Q61K cells,< 50%
"COC1CN(S(=O)(=O)Nc2ccc(F)c(Oc3ccc4ncn(C5CC6(CCN(C7CC8(C7)CN(c7cc9c(cc7F)c(N7CCC(=O)NC7=O)nn9C)C8)CC6)C5)c(=O)c4c3)c2C#N)C1 (stereo not drawn) [Compound 280, N-[2-cyano-3-[3-[7-[2-[3-(2,4-dioxohexahydropyrimidin-1-yl)-5-fluoro-1-methyl-indazol-6-yl]-2-azaspiro[3.3]heptan-6-yl]-7-azaspiro[3.5]nonan-2-yl]-4-oxo-quinazolin-6-yl]oxy-4-fluoro-phenyl]-3-methoxy-azetidine-1-sulfonamide]",GI50,A375-NRAS^Q61K cells,< 1 µM
same,Emax,A375-NRAS^Q61K cells,< 50%
"CC(C)(C)c1nc(-c2cccc(NS(=O)(=O)c3c(F)cccc3F)c2F)c(-c2ccnc(N)n2)s1 [Dabrafenib, dabrafenib, reference compound]",T/C,[1]; 100 mg/kg,26.6%
same,TGI,[1]; 100 mg/kg,81.5%
same,Tumor Size on PG-D21,[1]; 100 mg/kg,588 ± 244 mm^3
same,Tumor volume,"[1]; 100 mg/kg, day 0",221 ± 10 mm^3
same,Tumor volume,"[1]; 100 mg/kg, day 4",288 ± 19 mm^3
same,Tumor volume,"[1]; 100 mg/kg, day 7",348 ± 33 mm^3
same,Tumor volume,"[1]; 100 mg/kg, day 11",383 ± 64 mm^3
same,Tumor volume,"[1]; 100 mg/kg, day 14",407 ± 122 mm^3
same,Tumor volume,"[1]; 100 mg/kg, day 18",454 ± 159 mm^3
same,Tumor volume,"[1]; 100 mg/kg, day 21",588 ± 244 mm^3
"COC(=O)N[C@@H](C)CNc1nccc(-c2cn(C(C)C)nc2-c2cc(Cl)cc(NS(C)(=O)=O)c2F)n1 [Encorafenib, encorafenib, reference compound]",T/C,[1]; 35 mg/kg,10.6%
same,TGI,[1]; 35 mg/kg,99.3%
same,Tumor Size on PG-D21,[1]; 35 mg/kg,235 ± 68 mm^3
same,Tumor volume,"[1]; 35 mg/kg, day 0",221 ± 10 mm^3
same,Tumor volume,"[1]; 35 mg/kg, day 4",260 ± 22 mm^3
same,Tumor volume,"[1]; 35 mg/kg, day 7",278 ± 17 mm^3
same,Tumor volume,"[1]; 35 mg/kg, day 11",238 ± 18 mm^3
same,Tumor volume,"[1]; 35 mg/kg, day 14",209 ± 31 mm^3
same,Tumor volume,"[1]; 35 mg/kg, day 18",196 ± 47 mm^3
same,Tumor volume,"[1]; 35 mg/kg, day 21",235 ± 68 mm^3
